For assay [1], the target named is T1, Caspase-1 (Homo sapiens) (UniProt P29466).
T1 sequence (whole entry): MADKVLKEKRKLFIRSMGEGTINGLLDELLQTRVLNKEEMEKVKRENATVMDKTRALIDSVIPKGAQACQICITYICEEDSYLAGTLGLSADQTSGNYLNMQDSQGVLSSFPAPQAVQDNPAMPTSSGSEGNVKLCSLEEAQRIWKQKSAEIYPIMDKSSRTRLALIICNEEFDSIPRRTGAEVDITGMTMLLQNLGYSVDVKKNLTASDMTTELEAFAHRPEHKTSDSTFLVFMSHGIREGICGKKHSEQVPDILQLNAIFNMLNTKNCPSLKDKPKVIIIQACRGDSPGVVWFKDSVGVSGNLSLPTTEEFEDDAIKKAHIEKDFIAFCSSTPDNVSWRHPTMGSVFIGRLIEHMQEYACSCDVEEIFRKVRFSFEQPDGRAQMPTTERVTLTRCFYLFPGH
The experiment in a line: Inhibition of recombinant human caspase-1 expressed in Escherichia coli BL21 cells assessed as remaining activity at 10 uM using […] as substrate incubated for 30 mins relative to control.

Assay [2] concerns the target T1, Caspase-1 (Homo sapiens). The experiment in a line: Inhibition of recombinant human caspase-1 expressed in Escherichia coli BL21 cells assessed as remaining activity at 100 uM using […] as substrate incubated for 30 mins relative to control.
For assay [3], the target named is T2, Caspase-1 (Homo sapiens, UniProt P29466).
T2 sequence (P29466 whole entry): T1 sequence (whole entry)
Kind of assay: Inhibition of recombinant human caspase-1 expressed in Escherichia coli BL21 cells using […] as substrate incubated for 30 mins.

pIC50: −log10 of the molar value.

The values below come from ChEMBL document CHEMBL5584334, “Discovery of a Covalent Inhibitor of Pro-Caspase-1 Zymogen Blocking NLRP3 Inflammasome Activation and Pyroptosis” (J Med Chem, 2024).

Broadly, the pIC50 is the negative decadic logarithm of the IC50, by convention in mol/L. In the case of `CC(C)(C)OC(=O)[C@@H]1C[C@@H](N=C=S)C=C[C@@]12C(=O)N(C(=O)OCc1ccccc1)c1ccc(Cl)cc12`, the Activity in assay [1] came out at 77%; in assay [2], 24%. Also, in assay [3], the pIC50 is 4.07.
On to `Cc1ccc2c(c1)[C@]1(C=C[C@H](N=C=S)C[C@H]1C(=O)OC(C)(C)C)C(=O)N2C(=O)OCc1ccccc1`, for which the Activity in assay [1] worked out at 68%; in assay [2], 15%. The pIC50 in assay [3] is 4.55.
For the compound `O=C(OCc1ccccc1)[C@@H]1C[C@@H](N=C=S)C=C[C@@]12C(=O)N(C(=O)OCc1ccccc1)c1ccccc12`, the Activity amounted to 104% in assay [1] and 42% in assay [2]. Moreover, the pIC50 in assay [3] was 4.07.
`O=C(c1ccccc1)[C@@H]1C[C@@H](N=C=S)C=C[C@@]12C(=O)N(C(=O)OCc1ccccc1)c1ccccc12`: the Activity amounted to 56% in assay [1] and 15% in assay [2]. For the same compound, the pIC50 in assay [3] was 4.58.
Taken in the same sequence, the figures for `O=C(Oc1ccccc1)[C@@H]1C[C@@H](N=C=S)C=C[C@@]12C(=O)N(C(=O)OCc1ccccc1)c1ccccc12` were 101%, 56% and less than 4.00.
Turning to `CC(C)OC(=O)[C@@H]1C[C@@H](N=C=S)C=C[C@@]12C(=O)N(C(=O)OCc1ccccc1)c1ccccc12`, the figures for the Activity in assay [1] and in assay [2] were 104% and 19%, respectively. For the same compound, in assay [3], the pIC50 is 4.14.
Taken in the same sequence, the figures for `CC1=C[C@@]2(C(=O)N(C(=O)OCc3ccccc3)c3ccccc32)[C@H](C(=O)OC(C)(C)C)C[C@H]1N=C=S` were 93%, 84% and less than 4.00.
Taken in the same sequence, the figures for `CC(C)(C)OC(=O)[C@@H]1C[C@@H](N=C=S)C=C[C@@]12C(=O)N(C(=O)OCc1ccccc1)c1ccc(I)cc12` were 88%, 61% and less than 4.00.
Taken in the same sequence, the figures for `COC(=O)N1C(=O)[C@@]2(C=C[C@H](N=C=S)C[C@H]2C(=O)OC(C)(C)C)c2ccccc21` were 68%, 34% and 4.24.
For the compound `COC(=O)[C@@H]1C[C@@H](N=C=S)C=C[C@@]12C(=O)N(C(=O)OCc1ccccc1)c1ccccc12`, the figures for the Activity in assay [1] and in assay [2] were 78% and 9%, respectively. In addition, the pIC50 in assay [3] was 4.53.
Regarding `CC(C)(C)OC(=O)[C@@H]1C[C@@H](N=C=S)C=C[C@@]12C(=O)N(C(=O)OCc1ccccc1)c1ccccc12`, the results for the Activity in assay [1] and in assay [2] were 76% and 15%, respectively. For the same compound, the pIC50 in assay [3] was 4.43.
On to `CC(C)(C)OC(=O)[C@@H]1C[C@@H](NC(=S)Nc2ccccc2)C=C[C@@]12C(=O)N(C(=O)OCc1ccccc1)c1ccccc12`, for which the values for the Activity in assay [1] and in assay [2] were 112% and 84%, respectively. Moreover, in assay [3], the pIC50 was less than 4.00.
Take `CC(C)(C)OC(=O)[C@@H]1C[C@@H](N=C=S)C=C[C@@]12C(=O)N(C(=O)OCC1c3ccccc3-c3ccccc31)c1ccccc12`: the Activity in assay [1] was 90%; in assay [2] it was 24%. For the same compound, the pIC50 in assay [3] is 4.12.
Turning to `CC(C)(C)OC(=O)[C@@H]1C[C@@H](NC(=S)NN)C=C[C@@]12C(=O)N(C(=O)OCc1ccccc1)c1ccccc12`, the Activity in assay [1] worked out at 107%; in assay [2] it was 84%. The pIC50 in assay [3] is less than 4.00.
In the case of `CC1=C[C@@]2(C(=O)N(C(=O)OCc3ccccc3)c3ccccc32)[C@H](C(=O)OC(C)(C)C)C[C@@]1(C)N=C=S`, the figures for the Activity in assay [1] and in assay [2] were 103% and 91%, respectively. In addition, the pIC50 in assay [3] is less than 4.00.
Regarding `CCC1=C[C@@]2(C(=O)N(C(=O)OCc3ccccc3)c3ccccc32)[C@H](C(=O)OC(C)(C)C)C[C@@]1(CC)N=C=S`, the Activity was 108% in assay [1] and 90% in assay [2]. The pIC50 in assay [3] is less than 4.00.
As to `CC(C)(C)OC(=O)[C@@H]1C[C@@H](N=C=S)C=C[C@@]12C(=O)N(C(=O)OCc1ccccc1)c1c(F)cccc12`, the Activity in assay [1] is 85%; in assay [2], 13%. Besides, the pIC50 in assay [3] was 4.10.
